Several values for one entry are separate records, joined by “and”; a condition that tells them apart may be missing. Equal entries are not always repeated.
Test: xn = mol fraction of the nth substance listed

C1CCCCC1 + Cc1ccccc1
viscosity [mPa·s]
Details | 101 kPa | 101.33 kPa
293.95 K, x1 = 0.1 | – | 0.6126
294.15 K, x1 = 0.5 | – | 0.6762
294.25 K, x1 = 0.2 | – | 0.6123
294.45 K, x1 = 0.3 | – | 0.6228
294.75 K, x1 = 0.4 | – | 0.6357
294.75 K, x1 = 0.6 | – | 0.6922
296.15 K, x1 = 0.8 | – | 0.778
303 K, x2 = 0.04 | 0.7881 | –
303 K, x2 = 0.081 | 0.7486 | –
303 K, x2 = 0.162 | 0.6926 | –
303 K, x2 = 0.324 | 0.6161 | –
303 K, x2 = 0.484 | 0.5705 | –
303 K, x2 = 0.644 | 0.5419 | –
303 K, x2 = 0.803 | 0.5252 | –
303 K, x2 = 0.882 | 0.5268 | –
303 K, x2 = 0.96 | 0.5298 | –
303.15 K, x1 = 0.0958 | 0.5395 | –
303.15 K, x1 = 0.0999 | 0.5263 | –
303.15 K, x1 = 0.2 | 0.5319 | 0.5546
303.15 K, x1 = 0.2959 | 0.5409 | –
303.15 K, x1 = 0.4126 | 0.5566 | –
303.15 K, x1 = 0.4964 | 0.5726 | –
303.15 K, x1 = 0.6005 | 0.6005 | –
303.15 K, x1 = 0.7032 | 0.6367 | –
303.15 K, x1 = 0.7978 | 0.6827 | –
303.15 K, x1 = 0.8946 | 0.7448 | –
303.15 K, x2 = 0.0999 | 0.7364 | –
303.15 K, x2 = 0.2003 | 0.6714 | –
303.15 K, x2 = 0.3 | 0.6226 | –
303.15 K, x2 = 0.3999 | 0.5886 | –
303.15 K, x2 = 0.5 | 0.5635 | –
303.15 K, x2 = 0.6 | 0.5481 | –
303.15 K, x2 = 0.6999 | 0.5352 | –
303.15 K, x2 = 0.7998 | 0.5283 | –
303.15 K, x2 = 0.9 | 0.5256 | –
303.45 K, x1 = 0.1 | – | 0.5477
303.45 K, x1 = 0.3 | – | 0.5618
303.45 K, x1 = 0.8 | – | 0.7003
303.75 K, x1 = 0.5 | – | 0.5991
303.95 K, x1 = 0.4 | – | 0.5688
304.25 K, x1 = 0.6 | – | 0.6143
308.15 K, x2 = 0.0999 | 0.6829 | –
308.15 K, x2 = 0.2003 | 0.6256 | –
308.15 K, x2 = 0.3 | 0.5822 | –
308.15 K, x2 = 0.3999 | 0.5527 | –
308.15 K, x2 = 0.5 | 0.5308 | –
308.15 K, x2 = 0.6 | 0.5152 | –
308.15 K, x2 = 0.6999 | 0.5054 | –
308.15 K, x2 = 0.7998 | 0.4991 | –
308.15 K, x2 = 0.9 | 0.497 | –
312.45 K, x1 = 0.1 | – | 0.4994
312.45 K, x1 = 0.3 | – | 0.51
312.95 K, x1 = 0.8 | – | 0.6059
313.15 K, x1 = 0.2 | – | 0.4976
313.15 K, x1 = 0.4 | – | 0.5137
313.15 K, x1 = 0.4974 | 0.5095 | –
313.15 K, x2 = 0.0999 | 0.6359 | –
313.15 K, x2 = 0.2003 | 0.585 | –
313.15 K, x2 = 0.3 | 0.5466 | –
313.15 K, x2 = 0.3999 | 0.5206 | –
313.15 K, x2 = 0.5 | 0.4996 | –
313.15 K, x2 = 0.7998 | 0.4731 | –
313.15 K, x2 = 0.9 | 0.4707 | –
313.45 K, x1 = 0.5 | – | 0.5412
313.65 K, x1 = 0.6 | – | 0.5482
318.15 K, x2 = 0.0999 | 0.5914 | –
318.15 K, x2 = 0.2003 | 0.548 | –
318.15 K, x2 = 0.3 | 0.5136 | –
318.15 K, x2 = 0.3999 | 0.4913 | –
318.15 K, x2 = 0.5 | 0.4722 | –
318.15 K, x2 = 0.6 | 0.4614 | –
318.15 K, x2 = 0.6999 | 0.4531 | –
318.15 K, x2 = 0.7998 | 0.449 | –
318.15 K, x2 = 0.9 | 0.447 | –
322.75 K, x1 = 0.8 | – | 0.5481
323.15 K, x1 = 0.5989 | 0.4735 | –
323.15 K, x2 = 0.0999 | 0.5534 | –
323.15 K, x2 = 0.2003 | 0.5139 | –
323.15 K, x2 = 0.3 | 0.4839 | –
323.15 K, x2 = 0.3999 | 0.4632 | –
323.15 K, x2 = 0.5 | 0.4466 | –
323.15 K, x2 = 0.6 | 0.4383 | –
323.15 K, x2 = 0.6999 | 0.4304 | –
323.15 K, x2 = 0.7998 | 0.4264 | –
323.15 K, x2 = 0.9 | 0.4243 | –

CCC(C)=O + Cc1ccccc1
viscosity, 101 kPa
Details | 298.15 K | 303.15 K | 308.15 K
x1 = 0.1009 | – | 0.516 mPa·s | –
x1 = 0.2412 | – | 0.496 mPa·s | –
x1 = 0.3948 | – | 0.475 mPa·s | –
x1 = 0.524 | – | 0.458 mPa·s | –
x1 = 0.7006 | – | 0.431 mPa·s | –
x1 = 0.8899 | – | 0.397 mPa·s | –
x2 = 0.0856 | 0.4052 mPa·s and 0.4052 mPa·s | 0.3822 mPa·s and 0.3822 mPa·s | 0.3593 mPa·s and 0.3593 mPa·s
x2 = 0.1724 | 0.4244 mPa·s and 0.4244 mPa·s | 0.3996 mPa·s and 0.3996 mPa·s | 0.3756 mPa·s and 0.3756 mPa·s
x2 = 0.2624 | 0.4439 mPa·s and 0.4439 mPa·s | 0.4176 mPa·s and 0.4176 mPa·s | 0.3922 mPa·s and 0.3922 mPa·s
x2 = 0.337 | 0.4594 mPa·s and 0.4594 mPa·s | 0.432 mPa·s and 0.432 mPa·s | 0.4061 mPa·s and 0.4061 mPa·s
x2 = 0.433 | 0.4781 mPa·s and 0.4781 mPa·s | 0.4494 mPa·s and 0.4494 mPa·s | 0.423 mPa·s and 0.423 mPa·s
x2 = 0.5555 | 0.4987 mPa·s and 0.4987 mPa·s | 0.4688 mPa·s and 0.4688 mPa·s | 0.4417 mPa·s and 0.4417 mPa·s
x2 = 0.66 | 0.5145 mPa·s and 0.5145 mPa·s | 0.4844 mPa·s and 0.4844 mPa·s | 0.4575 mPa·s and 0.4575 mPa·s
x2 = 0.769 | 0.5308 mPa·s and 0.5308 mPa·s | 0.5002 mPa·s and 0.5002 mPa·s | 0.4738 mPa·s and 0.4738 mPa·s
x2 = 0.8831 | 0.5472 mPa·s and 0.5472 mPa·s | 0.5168 mPa·s and 0.5168 mPa·s | 0.4909 mPa·s and 0.4909 mPa·s

COC(C)=O + Cc1ccccc1
viscosity [mPa·s], 101 kPa
Details | 298.15 K | 308.15 K
x1 = 0.0413 | 0.536 | 0.487
x1 = 0.1501 | 0.502 | 0.459
x1 = 0.2505 | 0.476 | 0.437
x1 = 0.3495 | 0.454 | 0.419
x1 = 0.4385 | 0.437 | 0.404
x1 = 0.4859 | 0.429 | 0.397
x1 = 0.5491 | 0.42 | 0.389
x1 = 0.6486 | 0.407 | 0.377
x1 = 0.7514 | 0.397 | 0.367
x1 = 0.848 | 0.39 | 0.36
x1 = 0.9445 | 0.386 | 0.354

COCCOC + Cc1ccccc1
298.15 K, 101 kPa
Details | viscosity [mPa·s]
x1 = 0.102 | 0.535
x1 = 0.2036 | 0.509
x1 = 0.3047 | 0.486
x1 = 0.4053 | 0.462
x1 = 0.5055 | 0.444
x1 = 0.6053 | 0.434
x1 = 0.7046 | 0.429
x1 = 0.8035 | 0.425
x1 = 0.902 | 0.419

COC(C)=O + Cc1ccccc1C
viscosity [mPa·s], 101 kPa
Details | 298.15 K | 308.15 K
x1 = 0.0434 | 0.731 | 0.636
x1 = 0.1489 | 0.668 | 0.587
x1 = 0.2499 | 0.616 | 0.546
x1 = 0.3517 | 0.57 | 0.508
x1 = 0.444 | 0.533 | 0.478
x1 = 0.4974 | 0.513 | 0.462
x1 = 0.5506 | 0.495 | 0.447
x1 = 0.6497 | 0.465 | 0.422
x1 = 0.7494 | 0.438 | 0.399
x1 = 0.851 | 0.414 | 0.378
x1 = 0.9458 | 0.394 | 0.36

COc1ccccc1N + ClC(Cl)(Cl)Cl
viscosity [mPa·s], 100 kPa
Details | x2 = 0.0821 | x2 = 0.1726 | x2 = 0.2547 | x2 = 0.3403 | x2 = 0.4788 | x2 = 0.5789 | x2 = 0.6781 | x2 = 0.7641 | x2 = 0.8447
298.15 K | 5.011 | 4.611 | 4.247 | 3.866 | 3.249 | 2.8 | 2.355 | 1.967 | 1.603
303.15 K | 4.596 | 4.234 | 3.904 | 3.559 | 2.996 | 2.587 | 2.179 | 1.824 | 1.489
308.15 K | 4.218 | 3.892 | 3.593 | 3.28 | 2.768 | 2.394 | 2.02 | 1.694 | 1.385
313.15 K | 3.917 | 3.619 | 3.346 | 3.057 | 2.585 | 2.239 | 1.892 | 1.587 | 1.299
318.15 K | 3.643 | 3.371 | 3.121 | 2.856 | 2.42 | 2.099 | 1.776 | 1.491 | 1.221

COc1ccccc1N + ClC(Cl)C(Cl)Cl
viscosity [mPa·s], 100 kPa
Details | x1 = 0.0911 | x1 = 0.1962 | x1 = 0.2806 | x1 = 0.3816 | x1 = 0.4976 | x1 = 0.6023 | x1 = 0.7116 | x1 = 0.8104 | x1 = 0.9212
303.15 K | 1.786 | 2.165 | 2.464 | 2.82 | 3.224 | 3.584 | 3.957 | 4.291 | 4.66
308.15 K | 1.673 | 2.029 | 2.309 | 2.639 | 3.013 | 3.347 | 3.692 | 4.001 | 4.337
313.15 K | 1.562 | 1.895 | 2.154 | 2.458 | 2.802 | 3.111 | 3.427 | 3.709 | 4.012

COC(C)=O + ClC(Cl)Cl
303.15 K, 101.3 kPa
Details | viscosity [mPa·s]
x1 = 0.1026 | 0.5228
x1 = 0.2027 | 0.525
x1 = 0.3012 | 0.5197
x1 = 0.4009 | 0.5018
x1 = 0.5028 | 0.4782
x1 = 0.6033 | 0.4508
x1 = 0.7158 | 0.4176
x1 = 0.813 | 0.3893
x1 = 0.8983 | 0.3686
